For orientation: pKi means the negative decadic logarithm of the Ki, by convention in mol/L. A lower pKi goes with a high Ki. In general, AUC refers to the area under the concentration-time curve, a measure of exposure.

Molecules are shown by their SMILES. pKi: −log10 of the molar value.

Data set [1] deals with Adenosine receptor A2a (Homo sapiens, UniProt P29274). Kind of data set: Antagonist activity at human adenosine A2A receptor. It counts as functional.
Data set [2] is filed under the species Homo sapiens. Kind of data set: Selectivity for human adenosine A2A receptor over human adenosine A1 receptor.
The nature of data set [3]: AUC in rat catalepsy model at 3.0 mg/kg, po. The note with it: in vivo. The data set is classed as ADME, organism-based. More on the design: dose 3 mg/kg, route oral.
The subject of data set [4] is Rattus norvegicus. Description: Effect on rat catalepsy model at 3 mg/kg, po after 1 hr. It counts as functional.
Data set [5] has as its system Rattus norvegicus. Kind of data set: Effect on rat catalepsy model at 3 mg/kg, po after 4 hrs. It counts as functional.
Data set [6] relates to Rattus norvegicus. Description: Effect on rat catalepsy model at 1 mg/kg, po after 1 hr. The data set is classed as functional.
Data set [7] deals with Rattus norvegicus. Description: Effect on rat catalepsy model at 1 mg/kg, po after 4 hrs. It counts as functional.

Sequence of Adenosine receptor A2a (P29274 whole entry): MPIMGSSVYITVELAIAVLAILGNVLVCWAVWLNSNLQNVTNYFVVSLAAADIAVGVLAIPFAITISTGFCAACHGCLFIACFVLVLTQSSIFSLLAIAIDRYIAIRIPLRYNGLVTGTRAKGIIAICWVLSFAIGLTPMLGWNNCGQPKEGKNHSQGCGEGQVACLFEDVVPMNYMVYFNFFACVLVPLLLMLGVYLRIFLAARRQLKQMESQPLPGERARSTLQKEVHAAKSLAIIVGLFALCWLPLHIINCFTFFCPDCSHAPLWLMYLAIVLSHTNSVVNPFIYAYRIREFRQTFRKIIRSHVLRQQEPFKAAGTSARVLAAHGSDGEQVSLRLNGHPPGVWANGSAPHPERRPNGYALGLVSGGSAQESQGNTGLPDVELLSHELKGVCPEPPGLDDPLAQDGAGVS

The compound `COCCOc1ccc(N2CCN(CCn3cnc4c3nc(N)n3nc(-c5ccco5)nc43)CC2)cc1` had a pKi in data set [1] of 9.05. Besides, in data set [2], the Selectivity ratio is 669. Besides, in data set [3], the AUC was 524 ng·h/mL. In addition, the Activity in data set [4] is reported as 80%; in data set [5], 50%; in data set [6] it was 55%; in data set [7] it was 50%.

As to `COCCOc1ccc(N2CCN(CCn3cnc4c3nc(N)n3nc(-c5cccc[n+]5[O-])nc43)CC2)cc1`, in data set [1], the negative logarithm of the Ki (pKi) was 7.05. In addition, the Selectivity ratio in data set [2] worked out at 17.

In data set [1], `COCCOc1ccc(C2CCN(CCn3cnc4c3nc(N)n3nc(-c5ccco5)nc43)CC2)cc1` had a pKi of 9.15. Besides, in data set [2], the Selectivity ratio came to 519.

On to `COCCOc1ccc(N2CCN(CCn3cnc4c3nc(N)n3nc(-c5ccccc5F)nc43)CC2)cc1`, for which the pKi in data set [1] is 8.03. Besides, the Selectivity ratio in data set [2] turned out to be 15.

Consider `Nc1nc2c(ncn2CCN2CCN(c3ccc(Cl)cn3)CC2)c2nc(-c3ccco3)nn12`, for which, in data set [1], the pKi is 9.05. The Selectivity ratio in data set [2] turned out to be 333.

In data set [1], `Nc1nc2c(ncn2CCN2CCN(c3ccc(F)cc3F)CC2)c2nc(-c3ccco3)nn12` gave a pKi of 9.15. In data set [2], the Selectivity ratio came out at 88.

In the case of `Nc1nc2c(ncn2CCN2CCOCC2)c2nc(-c3ccco3)nn12`, in data set [1], the pKi was 8.20. Moreover, the Selectivity ratio in data set [2] amounted to 37.

In data set [1], `COCCOc1ccc(N2CCN(CCn3cnc4c3nc(N)n3nc(-c5ccccc5C(F)(F)F)nc43)CC2)cc1` had a negative logarithm of the Ki (pKi) of 8.00. Moreover, the Selectivity ratio in data set [2] came out at 181.

Compound `Cc1ccc(N2CCN(CCn3cnc4c3nc(N)n3nc(-c5ccco5)nc43)CC2)nc1` showed a pKi in data set [1] of 9.00. Further, the Selectivity ratio in data set [2] turned out to be 162.

On to `COCCOc1ccc(N2CCN(CCn3cnc4c3nc(N)n3nc(-c5ccccc5)nc43)CC2)cc1`, for which the pKi in data set [1] was 8.43. In data set [2], the Selectivity ratio was 91.

In data set [1], `Nc1nc2c(ncn2CCN2CCN(c3ncc(F)cn3)CC2)c2nc(-c3ccco3)nn12` gave a pKi of 8.85. The Selectivity ratio in data set [2] amounted to 378.

In data set [1], `Nc1nc2c(ncn2CCN2CCN(c3cccc(Cl)c3)CC2)c2nc(-c3ccco3)nn12` had a pKi of 9.40. For the same compound, the Selectivity ratio in data set [2] came to 371.

In data set [1], `Nc1nc2c(ncn2Cc2ccccc2C(F)(F)F)c2nc(-c3ccco3)nn12` had a pKi of 8.34. Moreover, the Selectivity ratio in data set [2] was determined as 30.

Take `Nc1nc2c(ncn2CCN2CCN(c3ccccc3)CC2)c2nc(-c3ccco3)nn12`: in data set [1], the pKi was 8.77. Besides, the Selectivity ratio in data set [2] was determined as 182.

In data set [1], `COCCOc1ccc(N2CCN(CCn3cnc4c3nc(N)n3nc(-c5ccccn5)nc43)CC2)cc1` had a negative-log Ki (pKi) of 7.90. Also, in data set [2], the Selectivity ratio came out at 108.

`Nc1nc2c(ncn2Cc2ccccc2Br)c2nc(-c3ccco3)nn12`: in data set [1], the pKi is 8.34. The Selectivity ratio in data set [2] worked out at 7.

In the case of `COCCOc1ccc(N2CCN(CCn3cnc4c3nc(N)n3nc(-c5ccco5)nc43)CC2)c(F)c1`, the negative logarithm of the Ki (pKi) in data set [1] was 9.10. In addition, the Selectivity ratio in data set [2] came to 517.

`COCCOc1ccc(N2CCN(CCn3cnc4c3nc(N)n3nc(-c5cccc(F)c5)nc43)CC2)cc1` gave a negative logarithm of the Ki (pKi) in data set [1] of 8.70. In addition, the Selectivity ratio in data set [2] was found to be 83.

For the compound `Nc1nc2c(ncn2CCN2CCC(c3ccc(F)cc3)CC2)c2nc(-c3ccco3)nn12`, the pKi in data set [1] is 9.05. Further, the Selectivity ratio in data set [2] was found to be 196.

`COCCOc1ccc(N2CCN(CCn3cnc4c3nc(N)n3nc(-c5ccccc5C)nc43)CC2)cc1` had a pKi in data set [1] of 7.69. Besides, in data set [2], the Selectivity ratio was 76.

Turning to `Nc1nc2c(ncn2CCN2CCN(c3nccs3)CC2)c2nc(-c3ccco3)nn12`, the pKi in data set [1] is 8.77. Moreover, the Selectivity ratio in data set [2] was found to be 138.

For `Nc1nc2c(ncn2CCc2ccccc2)c2nc(-c3ccco3)nn12`, the pKi in data set [1] was 8.39. Further, in data set [2], the Selectivity ratio is 33.

In data set [1], `Nc1nc2c(ncn2Cc2ccccc2Cl)c2nc(-c3ccco3)nn12` showed a negative logarithm of the Ki (pKi) of 8.77. In addition, the Selectivity ratio in data set [2] stood at 9.

For the compound `Nc1nc2c(ncn2Cc2ccccc2)c2nc(-c3ccco3)nn12`, the pKi in data set [1] is 8.82. For the same compound, in data set [2], the Selectivity ratio turned out to be 17.

Regarding `COCCOc1ccc(N2CCN(CCn3cnc4c3nc(N)n3nc(-c5ccco5)nc43)CC2)c(C(F)(F)F)c1`, in data set [1], the pKi is 9.40. The Selectivity ratio in data set [2] was 218.

In data set [1], `Nc1nc2c(ncn2CCN2CCN(c3ccc(Cl)cc3F)CC2)c2nc(-c3ccco3)nn12` gave a negative logarithm of the Ki (pKi) of 9.52. For the same compound, the Selectivity ratio in data set [2] stood at 403.

Compound `CCCn1cnc2c1nc(N)n1nc(-c3ccco3)nc21` showed a negative logarithm of the Ki (pKi) in data set [1] of 8.23. In data set [2], the Selectivity ratio was determined as 50.

In turn, `COc1ccc(N2CCN(CCn3cnc4c3nc(N)n3nc(-c5ccco5)nc43)CC2)cc1` gave a pKi in data set [1] of 10.00. The Selectivity ratio in data set [2] was determined as 1700.

The values above are taken from ChEMBL document CHEMBL1139098, “3H-[1,2,4]-Triazolo[5,1-i]purin-5-amine derivatives as adenosine A2A antagonists” (Bioorg Med Chem Lett, 2007).
